According to PubChem BioAssay (NCI):
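A five-concentration, 48-hour dose response in 96-well plates underlies each endpoint, interpolated linearly between surrounding concentrations. Definition used: TGI = concentration required for complete inhibition of growth.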

Legend:
Assay in all cases: inhibition of tumour cell growth, NCI panel, 48 h
786-0 renal = tested on: 786-0 renal
A498 renal = tested on: A498 renal
A549 NSCLC = tested on: A549 NSCLC
ACHN renal = tested on: ACHN renal
BT-549 breast = tested on: BT-549 breast
CAKI-1 renal = tested on: CAKI-1 renal
CCRF-CEM leukemia = tested on: CCRF-CEM leukemia
COLO 205 colon = tested on: COLO 205 colon
DU-145 prostate = tested on: DU-145 prostate
EKVX NSCLC = tested on: EKVX NSCLC
HCC-2998 colon = tested on: HCC-2998 colon
HCT-116 colon = tested on: HCT-116 colon
HCT-15 colon = tested on: HCT-15 colon
HL-60(TB) leukemia = tested on: HL-60(TB) leukemia
HOP-62 NSCLC = tested on: HOP-62 NSCLC
HOP-92 NSCLC = tested on: HOP-92 NSCLC
HS 578T breast = tested on: HS 578T breast
HT29 colon = tested on: HT29 colon
IGROV1 ovarian = tested on: IGROV1 ovarian
K-562 leukemia = tested on: K-562 leukemia
KM12 colon = tested on: KM12 colon
LOX IMVI melanoma = tested on: LOX IMVI melanoma
M14 melanoma = tested on: M14 melanoma
MALME-3M melanoma = tested on: MALME-3M melanoma
MCF7 breast = tested on: MCF7 breast
MDA-MB-231 breast = tested on: MDA-MB-231 breast
MDA-MB-435 = tested on: MDA-MB-435
MDA-N = tested on: MDA-N
MOLT-4 leukemia = tested on: MOLT-4 leukemia
NCI-H226 lung = tested on: NCI-H226 lung
NCI-H23 lung = tested on: NCI-H23 lung
NCI-H460 lung = tested on: NCI-H460 lung
NCI-H522 lung = tested on: NCI-H522 lung
OVCAR-3 ovarian = tested on: OVCAR-3 ovarian
OVCAR-4 ovarian = tested on: OVCAR-4 ovarian
OVCAR-8 ovarian = tested on: OVCAR-8 ovarian
PC-3 prostate = tested on: PC-3 prostate
RPMI-8226 leukemia = tested on: RPMI-8226 leukemia
SF-268 CNS = tested on: SF-268 CNS
SF-295 CNS = tested on: SF-295 CNS
SF-539 CNS = tested on: SF-539 CNS
SK-MEL-2 melanoma = tested on: SK-MEL-2 melanoma
SK-MEL-28 melanoma = tested on: SK-MEL-28 melanoma
SK-MEL-5 melanoma = tested on: SK-MEL-5 melanoma
SK-OV-3 ovarian = tested on: SK-OV-3 ovarian
SN12C renal = tested on: SN12C renal
SNB-19 CNS = tested on: SNB-19 CNS
SR leukemia = tested on: SR leukemia
SW-620 colon = tested on: SW-620 colon
T-47D breast = tested on: T-47D breast
TK-10 renal = tested on: TK-10 renal
U251 CNS = tested on: U251 CNS
UACC-257 melanoma = tested on: UACC-257 melanoma
UACC-62 melanoma = tested on: UACC-62 melanoma
UO-31 renal = tested on: UO-31 renal

## O=c1cc(-c2ccccc2)oc2cc(Oc3nnnn3-c3ccccc3)ccc12
786-0 renal
  TGI: > 100 µM
A498 renal
  TGI: 79.6 µM
A549 NSCLC
  TGI: > 100 µM
ACHN renal
  TGI: 13.9 µM
BT-549 breast
  TGI: 52.1 µM
CAKI-1 renal
  TGI: 20.4 µM
CCRF-CEM leukemia
  TGI: > 100 µM
COLO 205 colon
  TGI: > 100 µM
DU-145 prostate
  TGI: 94.1 µM
EKVX NSCLC
  TGI: > 100 µM
HCC-2998 colon
  TGI: > 100 µM
HCT-116 colon
  TGI: > 100 µM
HCT-15 colon
  TGI: > 100 µM
HL-60(TB) leukemia
  TGI: > 100 µM
HOP-62 NSCLC
  TGI: > 100 µM
HOP-92 NSCLC
  TGI: 9.17 µM
HS 578T breast
  TGI: 89.5 µM
HT29 colon
  TGI: > 100 µM
IGROV1 ovarian
  TGI: > 100 µM
K-562 leukemia
  TGI: > 100 µM
KM12 colon
  TGI: > 100 µM
LOX IMVI melanoma
  TGI: > 100 µM
M14 melanoma
  TGI: > 100 µM
MALME-3M melanoma
  TGI: > 100 µM
MCF7 breast
  TGI: 37.8 µM
MDA-MB-231 breast
  TGI: > 100 µM
MDA-MB-435
  TGI: 46 µM
MDA-N
  TGI: > 100 µM
MOLT-4 leukemia
  TGI: > 100 µM
NCI-H226 lung
  TGI: > 100 µM
NCI-H23 lung
  TGI: > 100 µM
NCI-H460 lung
  TGI: > 100 µM
NCI-H522 lung
  TGI: > 100 µM
OVCAR-3 ovarian
  TGI: > 100 µM
OVCAR-4 ovarian
  TGI: 70.9 µM
OVCAR-8 ovarian
  TGI: > 100 µM
PC-3 prostate
  TGI: > 100 µM
RPMI-8226 leukemia
  TGI: > 100 µM
SF-268 CNS
  TGI: 52.2 µM
SF-295 CNS
  TGI: > 100 µM
SF-539 CNS
  TGI: 85.4 µM
SK-MEL-2 melanoma
  TGI: 97.3 µM
SK-MEL-28 melanoma
  TGI: > 100 µM
SK-MEL-5 melanoma
  TGI: 42.4 µM
SK-OV-3 ovarian
  TGI: > 100 µM
SN12C renal
  TGI: > 100 µM
SNB-19 CNS
  TGI: > 100 µM
SR leukemia
  TGI: > 100 µM
SW-620 colon
  TGI: > 100 µM
T-47D breast
  TGI: 79.7 µM
TK-10 renal
  TGI: > 100 µM
U251 CNS
  TGI: 41.4 µM
UACC-257 melanoma
  TGI: 90.9 µM
UACC-62 melanoma
  TGI: > 100 µM
UO-31 renal
  TGI: 33.1 µM
